Dose data for 21 compounds are collected here from ChEMBL document CHEMBL1123061, “Potentiation of fasciolicidal agents by benzoyl side chains. Synthesis of benzoylsalicylanilides” (1985).

The test system of this assay is Fasciola hepatica. Nature of the assay: In vivo for fasciolicidal activity against Fasciola hepatica infections in rats following s.c. administration.
For the compound `Cc1cc(C(=O)c2ccc(Cl)cc2)cc(C(=O)Nc2cc(Cl)cc(Cl)c2)c1O`, the Dose is 100 mg/kg. `Cc1cc(C(=O)c2ccc(Cl)cc2)cc(C(=O)Nc2ccc(Br)cc2C(F)(F)F)c1O` gave a Dose of 6.3 mg/kg.

On to `O=C(c1ccc(Cl)cc1)c1ccc(O)c(C(=O)Nc2ccc([N+](=O)[O-])cc2Cl)c1`, for which the Dose amounted to 25 mg/kg.

As to `Cc1cc(C(=O)c2ccc(Cl)c(Cl)c2)cc(C(=O)Nc2ccc([N+](=O)[O-])cc2Cl)c1O`, the Dose amounted to 3.1 mg/kg. Next, `Cc1cc(C(=O)c2ccc(Br)cc2)cc(C(=O)Nc2ccc([N+](=O)[O-])cc2Cl)c1O`: 3.1 mg/kg; `Cc1cc(C(=O)c2ccc([N+](=O)[O-])cc2)cc(C(=O)Nc2ccc(Cl)cc2Cl)c1O`: 12.5 mg/kg; `Cc1cc(C(=O)c2ccc(Cl)cc2)cc(C(=O)Nc2ccc([N+](=O)[O-])cc2Cl)c1O`: 6.3 mg/kg. Next, `Cc1cc(Cc2ccccc2)cc(C(=O)Nc2ccc(Cl)cc2Cl)c1O`: 100 mg/kg.

In turn, `Cc1cc(C(=O)c2ccc(C#N)cc2)cc(C(=O)Nc2ccc([N+](=O)[O-])cc2Cl)c1O` showed a Dose of 6.3 mg/kg.

Compound `Cc1cc(C(=O)c2ccc(Cl)cc2)cc(C(=O)Nc2ccc([N+](=O)[O-])cc2C(F)(F)F)c1O` had a Dose of 6.3 mg/kg.

For `Cc1c(C(=O)c2ccc(Cl)cc2)cc(C(C)(C)C)c(O)c1C(=O)Nc1ccc([N+](=O)[O-])cc1Cl`, the Dose was found to be 1.6 mg/kg. The compound `Cc1cc(C(=O)c2ccc(Cl)cc2)cc(C(=O)Nc2ccc(C#N)cc2)c1O` showed a Dose of 100 mg/kg. As to `Cc1cc(C(=O)c2ccc(Br)cc2)cc(C(=O)Nc2ccc(Cl)cc2Cl)c1O`, the Dose came to 100 mg/kg. As to `Cc1cc(C(=O)c2ccc([N+](=O)[O-])cc2)cc(C(=O)Nc2ccc([N+](=O)[O-])cc2Cl)c1O`, the Dose was found to be 6.3 mg/kg. Regarding `Cc1cc(C(=O)c2ccc(Cl)cc2)cc(C(=O)Nc2ccc([N+](=O)[O-])cc2Br)c1O`, the Dose was 3.1 mg/kg. `Cc1cc(C(=O)c2ccc(Cl)cc2Cl)cc(C(=O)Nc2ccc([N+](=O)[O-])cc2Cl)c1O` returned a Dose of 6.3 mg/kg. Turning to `Cc1cc(C(=O)c2ccc(Cl)cc2)cc(C(=O)Nc2ccc(Cl)c(Cl)c2)c1O`, the Dose was 100 mg/kg. Next, `Cc1cc(C(=O)c2ccc(I)cc2)cc(C(=O)Nc2ccc([N+](=O)[O-])cc2Cl)c1O`: 12.5 mg/kg; `Cc1cc(Oc2ccccc2)cc(C(=O)Nc2ccc(Cl)cc2Cl)c1O`: 100 mg/kg; `Cc1cc(C(=O)c2ccc(Cl)cc2)c(C)c(C(=O)Nc2ccc([N+](=O)[O-])cc2Cl)c1O`: 3.1 mg/kg. `O=C(Nc1ccc(Oc2ccc(Cl)cc2)c(Cl)c1)c1cc(I)cc(I)c1O` [RAFOXANIDE] had a Dose of 12.5 mg/kg.
